Assay [1] deals with 5‐HT2A receptor (Rattus norvegicus, UniProt P14842). The assay is described as follows: 5‐HT2A competition binding assay ([3H]ketanserin, frontal cortex membranes). Also on record: from tissue; host or cells: rat (Sprague-Dawley) frontal cortex membranes. The settings on record: 1 nM [3H]ketanserin.
Assay [2] addresses T1, 5‐HT1A receptor (Rattus norvegicus, UniProt P19327).
T1 construct: 80 μg of hippocampal membrane suspension (the 5‐HT1A assay); from tissue; host or cells: rat (Sprague-Dawley) hippocampus membranes
T1 sequence (P19327 1-422): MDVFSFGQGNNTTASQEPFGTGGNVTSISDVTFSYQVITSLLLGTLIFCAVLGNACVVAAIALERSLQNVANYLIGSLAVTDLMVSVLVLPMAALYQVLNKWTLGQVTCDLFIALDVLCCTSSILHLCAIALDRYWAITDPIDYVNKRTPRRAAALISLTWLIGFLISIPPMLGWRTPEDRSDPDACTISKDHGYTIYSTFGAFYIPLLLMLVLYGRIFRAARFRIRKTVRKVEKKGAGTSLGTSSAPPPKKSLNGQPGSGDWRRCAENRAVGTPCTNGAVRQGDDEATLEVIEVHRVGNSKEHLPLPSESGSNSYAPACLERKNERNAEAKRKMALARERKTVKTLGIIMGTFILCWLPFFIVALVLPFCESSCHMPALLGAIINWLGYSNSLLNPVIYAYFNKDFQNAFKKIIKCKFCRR
Nature of the assay: 5‐HT1A receptor activation in the [35S]GTP‐γ‐S assay (hippocampal membranes). Format: biochemical. The settings on record: [35S]GTPγS; for EC50 / Emax / Emax (%) ± SEM, 5‐HT1A receptor G‐protein stimulation / pEC50, 5‐HT1A receptor G‐protein stimulation / EC50 (95% CI, μM), 5‐HT1A receptor G‐protein stimulation: rat hippocampal membranes; for Emax: read-out: Emax (%) ± SEM, 5‐HT1A receptor G‐protein stimulation; for agonist activity for the 5‐HT1A receptor (classification in words): efficacy compared with 8‐OH‐DPAT. How it is done:
Seven compound concentrations equally spaced on a log scale (10–4 M to 10–10 M) were incubated in duplicate with hippocampal membrane preparations (5μg per well) in assay buffer (50 mM Tris‐HCl, pH = 7.4, 1 mM EGTA, 3 mM MgCl2, 100 mM NaCl, and 30 μM GDP) and 0.08 nM [^35S]GTP‐γ‐S (specific activity: 1250 Ci mmole^−1, Revvity). Nonspecific binding was determined with 10μM of unlabeled GTP‐γ‐S. The final DMSO concentration in the assay was 5%. The reaction mixture was incubated for 90 min. at 30 °C on an orbital shaker set at 250 rpm. Next, the reaction mixture was deposited under vacuum with the FilterMate Harvester (Revvity, USA) onto Unifilter GF/C Plates (Revvity, MA, USA) presoaked with wash buffer (50 mM Tris‐HCl, pH = 7.4). The wells were then rapidly washed with 2 mL of wash buffer. Filter plates were dried overnight at room temperature. Once completely dry, 35 μl of MicroScint PS (Revvity, MA, USA) scintillation fluid was added to each well. Radioactivity was counted in a MicroBeta2 LumiJet scintillation counter (Revvity, MA, USA). Data were analyzed with GraphPad Prism 5.0 software (GraphPad Software, San Diego California USA, www.graphpad.com). The curves were fitted with three‐parameter non‐linear regression model.

Assay [3] has as its target T2, 5‐HT2C receptor (Rattus norvegicus, UniProt P08909).
T2 construct: 10 μM pargyline and 160μg of the frontal cortex membrane suspension; from tissue; host or cells: rat (Sprague-Dawley) frontal cortex membranes
T2 sequence (P08909 33-460): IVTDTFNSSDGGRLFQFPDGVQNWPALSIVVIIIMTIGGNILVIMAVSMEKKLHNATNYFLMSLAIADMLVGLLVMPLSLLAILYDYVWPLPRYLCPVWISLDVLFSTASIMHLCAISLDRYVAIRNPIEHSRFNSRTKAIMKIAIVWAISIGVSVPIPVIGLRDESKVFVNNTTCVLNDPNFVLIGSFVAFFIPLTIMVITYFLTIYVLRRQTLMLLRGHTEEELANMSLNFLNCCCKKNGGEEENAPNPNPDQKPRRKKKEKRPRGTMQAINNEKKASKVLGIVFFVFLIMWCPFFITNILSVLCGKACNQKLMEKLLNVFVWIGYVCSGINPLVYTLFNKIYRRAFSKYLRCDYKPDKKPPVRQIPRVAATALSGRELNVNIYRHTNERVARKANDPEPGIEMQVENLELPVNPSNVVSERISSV
The assay is described as follows: 5‐HT2C competition binding assay ([3H]mesulergine, frontal cortex membranes). As to conditions: 5 nM [3H]mesulergine. As to the method:
(§1) Sprague‐Dawley rats were sacrificed by isoflurane overdose. Brains were rapidly removed and placed on ice. Hippocampi (for the 5‐HT1A assay) and frontal cortices (for the 5‐HT2A and 5‐HT2C assays) were dissected on a Petri dish. The tissue from 10 rats was homogenized in 30 vol. homogenization buffer (50 mM Tris–HCl, […], 1 mM EDTA, 1 mM dithiothreitol) with a handheld Teflon‐glass homogenizer. The homogenate was centrifuged at 48,000 × g at 4 °C for 15 min. The pellet was suspended and homogenized in the homogenization buffer and incubated for 10 min. at 36 °C. The centrifugation and suspension steps were repeated twice. The final pellet was homogenized in 5 vol. 50 mM Tris–HCl, pH = 7.4 buffer and stored at −80 °C for no longer than 6 months. […] For the 5‐HT2C assay, compounds were incubated in duplicate with 5 nM [^3H]mesulergine (specific activity: 80.2 Ci mmol^−1, Revvity, MA, USA) for 60 min. at 36 °C in a 50 mM Tris‐HCl (pH 7.4) buffer, supplemented with 5 mM MgCl2, 140 mM NaCl, 1 mM DTT, 1 mM CaCl2, 10 μM pargyline and 160μg of the frontal cortex membrane suspension. Non‐specific binding was determined with 10μM serotonin. The final DMSO concentration in the assay was 5%. After incubation, the reaction mixture was deposited onto Unifilter GF/C plates (Revvity, MA, USA) presoaked in 0.4% PEI (or 0.4% PEI and 0.5% Triton X‐100 for the 5‐HT2C assay) for 1 h with the FilterMate‐96 Harvester (Revvity, MA, USA). Then, each well was washed with 2 mL of 50 mM Tris–HCl (pH 7.4) buffer to separate bound ligands from free and the plates were left to dry overnight. Then, 35μl of Microscint‐20 scintillation fluid (Revvity, MA, USA) was added to each filter well and left to equilibrate for 2h. Filter‐bound radioactivity was counted in a MicroBeta2 LumiJet scintillation counter (Revvity, MA, USA). Binding curves were fitted with one site non‐linear regression. Binding affinity (pKi and Ki) for each compound was calculated from the […] values with the Cheng‐Prusoff equation from two separate experiments.

Assay [4] addresses T1, 5‐HT1A receptor. Nature of the assay: 5‐HT1A competition binding assay ([3H]8‐OH‐DPAT, hippocampal membranes). As to conditions: 1 nM [3H]8‐OH‐DPAT. How it is done:
as §1

[5] abbreviates: 95% CI in brackets, read-out: 5‐HT2A Ki (95% CI).
Where [6] appears, read: 95% CI in brackets, read-out: EC50 (95% CI, μM), 5‐HT1A receptor G‐protein stimulation.
Setting [7] is: read-out: 5‐HT2C pKi (converted).
The mark [8] stands for this setting: 95% CI in brackets, read-out: 5‐HT1A Ki (95% CI).
Setting [9] is: 95% CI in brackets, read-out: 5‐HT2C Ki (95% CI).
Where [10] appears, read: read-out: 5‐HT1A pKi (converted).

The source of these data is paper PMC12321279, “Novel 4,5‐Dihydrothiazole‐Phenylpiperazine Derivatives: Synthesis, Docking Studies and Pharmacological Evaluation as Serotonergic Agents” (Chemmedchem, 2025).

SMILES strings stand for the structures. Where two headings read alike, the source gives them in different places.

Sequence of 5‐HT2A receptor (P14842 whole entry): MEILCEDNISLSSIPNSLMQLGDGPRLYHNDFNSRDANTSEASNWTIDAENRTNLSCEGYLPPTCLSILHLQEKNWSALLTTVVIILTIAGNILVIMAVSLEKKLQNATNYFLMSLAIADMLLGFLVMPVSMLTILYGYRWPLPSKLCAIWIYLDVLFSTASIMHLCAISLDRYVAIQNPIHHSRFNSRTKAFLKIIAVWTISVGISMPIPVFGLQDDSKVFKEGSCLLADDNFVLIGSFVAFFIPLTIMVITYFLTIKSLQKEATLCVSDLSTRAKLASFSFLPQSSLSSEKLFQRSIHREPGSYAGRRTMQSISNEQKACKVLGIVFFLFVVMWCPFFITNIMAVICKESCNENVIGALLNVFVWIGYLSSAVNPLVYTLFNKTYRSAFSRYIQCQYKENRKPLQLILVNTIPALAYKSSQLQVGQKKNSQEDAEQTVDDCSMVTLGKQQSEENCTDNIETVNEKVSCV

Consider `O=C(NCCCN1CCN(c2ccccc2C2=NCCS2)CC1)C1CC2C=CC1C2` (stereo not drawn) [FG‐13, Exo‐N‐(3‐(4‐(2‐(4,5‐dihydrothiazol‐2‐yl)phenyl)piperazin‐1‐yl)propyl) bicyclo [2.2.1] hept‐5‐ene‐2‐carboxamide], for which the Ki in assay [1] (setting [5]) is 3.54 µM; in assay [3] (setting [7]), 0.794 µM; in assay [4] (setting [8]), 0.22 µM. Also, the EC50 in assay [2] (setting [6]) stood at 79.6 µM. For the same compound, the maximal effect (Emax) in assay [2] was 132 ± 8.4%.

With `COc1cc(OC)c(C(=O)CCCCN2CCC3(CC2)NC(=O)NC3=O)cc1NS(=O)(=O)c1ccc(C(F)(F)F)cc1` [RS‐102 221, reference compound], the “5‐HT2C pKi” value in assay [3] was 8.24 ± 0.23. Besides, the Ki in assay [3] (setting [9]) worked out at 0.0057 µM.

As for `O=C1C2C3C=CC(O3)C2C(=O)N1OCCCN1CCN(c2ccc(C3=NCCS3)cc2)CC1` (stereo not shown) [FG‐12, 2‐(3‐(4‐(4‐(4,5‐dihydrothiazol‐2‐yl) phenyl) piperazin‐1‐yl) propoxy)‐3a,4,7,7a‐tetrahydro‐1H‐4,7‐epoxyisoindole‐1,3(2H)‐dione], the Ki is 6.93 µM in assay [1] (setting [5]), 0.286 µM in assay [3] (setting [9]) and 63.1 µM in assay [4] (setting [10]). The EC50 in assay [2] (setting [6]) is 46.2 µM. Further, in assay [2], the Emax stood at 135 ± 18.2%.

Consider `O=C(NCCCN1CCN(c2ccc(C3=NCCS3)cc2)CC1)C1CC2C=CC1C2` (stereo not drawn) [FG‐15, Exo‐N‐(3‐(4‐(4‐(4,5‐dihydrothiazol‐2‐yl)phenyl)piperazin‐1‐yl)propyl) bicyclo [2.2.1] hept‐5‐ene‐2‐carboxamide], for which the Ki was 4.47 µM in assay [1] (read-out: 5‐HT2A pKi (converted)), 2.36 µM in assay [3] (setting [9]), 2.4 µM in assay [3] (setting [7]) and 17.8 µM in assay [4] (setting [10]). The EC50 in assay [2] (setting [6]) was 88.1 µM; in assay [2] (read-out: pEC50, 5‐HT1A receptor G‐protein stimulation (converted)), 89.1 µM. Further, in assay [2], the Emax came to 137 ± 4.7%.

As to `CCCN(CCC)C1CCc2cccc(O)c2C1` (stereo not shown) [8‐OH‐DPAT, 8‐hydroxy‐dipropylaminotetraline, reference compound], the Emax in assay [2] worked out at 177 ± 1.2%.

Regarding `O=C1C2C3C=CC(O3)C2C(=O)N1OCCCN1CCN(c2ccccc2C2=NCCS2)CC1` (stereo not shown) [FG‐10, 2‐(3‐(4‐(2‐(4,5‐dihydrothiazol‐2‐yl) phenyl) piperazin‐1‐yl) propoxy)‐3a,4,7,7a‐tetrahydro‐1H‐4,7‐epoxyisoindole‐1,3(2H)‐dione], the values for the Ki in assay [1] (setting [5]), in assay [3] (setting [7]) and in assay [4] (setting [8]) were 3.84 µM, 3.24 µM and 0.61 µM, respectively. Besides, the EC50 in assay [2] (setting [6]) stood at 52 µM. Further, the maximum response (Emax) in assay [2] was 120 ± 14.9%.

Take `O=C(NCCCN1CCN(c2ccc(C3=NCCS3)cc2)CC1)c1ccccn1` [FG‐3, N‐(3‐(4‐(4‐(4,5‐dihydrothiazol‐2‐yl) phenyl) piperazin‐1‐yl) propyl) picolinamide]: the Ki in assay [1] (setting [5]) is 6.3 µM; in assay [3] (setting [9]) it was 1.46 µM; in assay [4] (setting [8]) it was 4.5 µM; in assay [4] (setting [10]), 4.57 µM. For the same compound, the “Emax (%) ± SEM, 5‐HT1A receptor G‐protein stimulation” value in assay [2] is “No activity”. Besides, the “pEC50, 5‐HT1A receptor G‐protein stimulation” value in assay [2] was “No activity”. In addition, the “EC50 (95% CI, μM), 5‐HT1A receptor G‐protein stimulation” value in assay [2] (95% CI in brackets) is “No activity”. Besides, the “agonist activity for the 5‐HT1A receptor (classification in words)” value in assay [2] is recorded as “do not express any agonist activity”.

As for `O=C1C2C3C=CC(C3)C2C(=O)N1OCCCN1CCN(c2ccc(C3=NCCS3)cc2)CC1` (stereo not shown) [FG‐9, 2‐(3‐(4‐(4‐(4,5‐dihydrothiazol‐2‐yl) phenyl) piperazin‐1‐yl) propoxy)‐3a,4,7,7a‐tetrahydro‐1H‐4,7‐methanoisoindole‐1,3(2H)‐dione], the Ki in assay [1] (setting [5]) is 14.1 µM; in assay [3] (setting [9]), 2.03 µM; in assay [4] (setting [10]), 72.4 µM. The “Emax (%) ± SEM, 5‐HT1A receptor G‐protein stimulation” value in assay [2] is reported as “No activity”. The “pEC50, 5‐HT1A receptor G‐protein stimulation” value in assay [2] is “No activity”. For the same compound, in assay [2] (95% CI in brackets), the “EC50 (95% CI, μM), 5‐HT1A receptor G‐protein stimulation” value is recorded as “No activity”. Moreover, the “agonist activity for the 5‐HT1A receptor (classification in words)” value in assay [2] is listed as “do not express any agonist activity”.
